Source: PubChem BioAssay AID588639 (Sanford-Burnham Center for Chemical Genomics, 2011)
Several values for one entry are separate records, joined by “and”; a condition that tells them apart may be missing. Identical values can stand only once. Activity calls are given as the source filed them. The rule behind the calls is not given here.

These compounds were tested against Alkaline phosphatase, tissue-nonspecific isozyme (Homo sapiens) (UniProt P05186) (assay: human TNAP enzyme inhibitors, SAR follow-up, selectivity assay for mouse IAP inhibitor project, biochemical, set 2 (AID 588639)). Conditions: purified human TNAP enzyme activity, counter-screen for mouse IAP.
Alkaline phosphatase, tissue-nonspecific isozyme (Homo sapiens), sequence (P05186 whole entry, looked up): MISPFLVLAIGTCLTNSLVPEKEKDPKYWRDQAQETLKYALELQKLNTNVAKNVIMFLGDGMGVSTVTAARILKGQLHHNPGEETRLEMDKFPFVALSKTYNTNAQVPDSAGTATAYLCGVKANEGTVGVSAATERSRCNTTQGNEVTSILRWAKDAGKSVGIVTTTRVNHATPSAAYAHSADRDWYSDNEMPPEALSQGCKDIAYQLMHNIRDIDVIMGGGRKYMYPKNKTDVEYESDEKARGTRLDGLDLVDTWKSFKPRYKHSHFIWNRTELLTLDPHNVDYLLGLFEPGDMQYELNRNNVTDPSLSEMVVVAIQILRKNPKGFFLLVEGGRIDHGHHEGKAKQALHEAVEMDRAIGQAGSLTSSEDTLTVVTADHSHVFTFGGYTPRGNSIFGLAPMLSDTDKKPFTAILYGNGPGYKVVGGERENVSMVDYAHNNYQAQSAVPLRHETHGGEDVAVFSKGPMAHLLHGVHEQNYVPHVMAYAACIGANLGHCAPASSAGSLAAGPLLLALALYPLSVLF

SMILES | IC50
COc1ccc(NC(=O)CCCNS(=O)(=O)c2ccc3[nH]c(=O)oc3c2)cc1OC | > 100 µM (inactive)
O=C(N/N=C/c1ccc(Br)cc1F)c1cc(O)ccc1O | > 100 µM (inactive)
Cc1ccc(NC(=O)CCNS(=O)(=O)c2ccc3c(c2)oc(=O)n3C)c(C)c1 | > 100 µM (inactive)
O=C(N/N=C/c1c(F)cccc1Cl)c1ccc(O)cc1O | > 100 µM (inactive)
COc1cccc(/C=N/NC(=O)c2cc(O)c(O)c(O)c2)c1O | > 100 µM (inactive)
O=C(CCS(=O)(=O)Nc1ccc2[nH]c(=O)oc2c1)NCc1ccccc1Cl | > 100 µM (inactive)
O=C(CCNS(=O)(=O)c1ccc2ccccc2c1)NCCc1ccc2c(c1)OCO2 | > 100 µM (inactive)
O=C(N/N=C/c1ccccc1F)c1ccc(O)cc1O | > 100 µM (inactive)
COc1ccc(OC)c(NC(=O)CCNS(=O)(=O)c2ccc3c(c2)oc(=O)n3C)c1 | > 100 µM (inactive)
COc1ccc(CNC(=O)CCNS(=O)(=O)c2ccc3ccccc3c2)c(OC)c1 | > 100 µM (inactive)
O=C(N/N=C/c1ccc(F)cc1F)c1ccc(O)cc1 | > 100 µM (inactive)
O=C(N/N=C/c1c(F)cccc1Cl)c1ccc(O)cc1 | > 100 µM (inactive)
COc1cc(C(=O)N/N=C/c2c(F)cccc2Cl)cc(OC)c1OC | > 100 µM (inactive)
COc1cccc(C(=O)N/N=C/c2ccccc2F)c1 | > 100 µM (inactive)
CCOc1cc(C(=O)N/N=C/c2c(F)cccc2Cl)cc(OCC)c1OCC | > 100 µM (inactive)
CSc1cccc(NC(=O)CCNS(=O)(=O)c2ccc3c(c2)oc(=O)n3C)c1 | > 100 µM (inactive)
O=C(N/N=C/c1cccc(Cl)c1Cl)c1cc(O)c(O)c(O)c1 | > 100 µM (inactive)
COc1ccc(C(=O)N/N=C/c2c(F)cccc2Cl)cc1OC | > 100 µM (inactive)
Cc1ccc(C)c(NC(=O)CCNS(=O)(=O)c2ccc3ccccc3c2)c1 | > 100 µM (inactive)
O=c1[nH]c2ccc(S(=O)(=O)Nc3ccc4c(c3)OCO4)cc2o1 | > 100 µM (inactive)
O=c1[nH]c2ccc(S(=O)(=O)NCCc3ccc4c(c3)OCO4)cc2o1 | > 100 µM (inactive)

SMILES | IC50
O=C(N/N=C/c1ccc(Cl)c(Cl)c1)c1cc(O)c(O)c(O)c1 | > 100 µM (inactive)
O=C(N/N=C/c1ccccc1F)c1ccc(O)cc1 | > 100 µM (inactive)
O=C(CCNS(=O)(=O)c1ccc2c(c1)CCC2)NCCc1ccc2c(c1)OCO2 | > 100 µM (inactive)
Cc1ccc(NC(=O)CCNS(=O)(=O)c2ccc3c(c2)oc(=O)n3C)cc1 | > 100 µM (inactive)
COc1ccc(C(=O)N/N=C/c2ccccc2F)cc1 | > 100 µM (inactive)
COc1ccc(CNC(=O)CCNS(=O)(=O)c2ccc3c(c2)CCC3)c(OC)c1 | > 100 µM (inactive)
O=C(N/N=C/c1ccccc1C(F)(F)F)c1cc(O)c(O)c(O)c1 | > 100 µM (inactive)
O=C(N/N=C/c1cc(Br)ccc1F)c1ccc(O)cc1 | > 100 µM (inactive)
Cc1ccc(C)c(NC(=O)CCNS(=O)(=O)c2ccc3c(c2)CCC3)c1 | > 100 µM (inactive)
CC(C)c1ccc(NC(=O)CCNS(=O)(=O)c2ccc3c(c2)oc(=O)n3C)cc1 | > 100 µM (inactive)
CC(C)c1ccc(/C=N/NC(=O)c2cc(O)c(O)c(O)c2)cc1 | > 100 µM (inactive)
COc1ccc(NC(=O)CCNS(=O)(=O)c2ccc3ccccc3c2)cc1OC | > 100 µM (inactive)
CCc1ccc(NC(=O)CCNS(=O)(=O)c2ccc3c(c2)oc(=O)n3C)cc1 | > 100 µM (inactive)
COc1ccc(/C=N/NC(=O)c2cc(O)c(O)c(O)c2)c(OC)c1 | > 100 µM (inactive)
CCOc1cc(C(=O)N/N=C/c2ccccc2F)cc(OCC)c1OCC | > 100 µM (inactive)
O=C(CCNS(=O)(=O)c1ccc2[nH]c(=O)oc2c1)Nc1ccc2c(c1)OCO2 | > 100 µM (inactive)
CC(=NNC(=O)c1ccccc1OCCOc1ccccc1)c1ccccc1F | > 100 µM (inactive)
COc1ccc(/C=N\NC(=O)c2cc(O)c(O)c(O)c2)cc1CN1CCN(c2ccc(F)cc2)CC1 | > 100 µM (inactive)
COc1cc(/C=N/NC(=O)c2cc(O)c(O)c(O)c2)ccc1O | > 100 µM (inactive)
O=C(N/N=C/c1c(F)cccc1F)c1ccc(O)cc1 | > 100 µM (inactive)
O=C(N/N=C/c1ccccc1Cl)c1cc(O)c(O)c(O)c1 | > 100 µM (inactive)

Second part, the compound after the results:

IC50 | SMILES
> 100 µM (inactive) | Cc1ccc(C)c(CNC(=O)C2CCCN(S(=O)(=O)c3ccc4[nH]c(=O)oc4c3)C2)c1 (stereo not given)
> 100 µM (inactive) | COc1ccccc1CNC(=O)CCCNS(=O)(=O)c1ccc2[nH]c(=O)oc2c1
> 100 µM (inactive) | N#Cc1cccc(CNC(=O)CCNS(=O)(=O)c2ccc3[nH]c(=O)oc3c2)c1
> 100 µM (inactive) | O=C(CCNS(=O)(=O)c1ccc2[nH]c(=O)oc2c1)NCCc1ccc2c(c1)OCO2
> 100 µM (inactive) | Cc1ccccc1CNC(=O)C1CCCN(S(=O)(=O)c2ccc3[nH]c(=O)oc3c2)C1 (stereo not given)
> 100 µM (inactive) | Cc1ccc(C)c(NC(=O)C2CCCN(S(=O)(=O)c3ccc4c(c3)oc(=O)n4C)C2)c1 (stereo not given)
> 100 µM (inactive) | Cc1ccc(CNC(=O)C2CCCN(S(=O)(=O)c3ccc4[nH]c(=O)oc4c3)C2)cc1 (stereo not given)
> 100 µM (inactive) | O=C(CCNS(=O)(=O)c1ccc2[nH]c(=O)oc2c1)NCc1ccccc1F
> 100 µM (inactive) | COc1cccc(CNS(=O)(=O)c2ccc3[nH]c(=O)oc3c2)c1
> 100 µM (inactive) | N#Cc1ccc(NS(=O)(=O)c2ccc3[nH]c(=O)oc3c2)cc1
> 100 µM (inactive) | O=C(CCNS(=O)(=O)c1ccc2[nH]c(=O)oc2c1)NCc1ccccc1
74.6 µM | O=C(CCCNS(=O)(=O)c1ccc2[nH]c(=O)oc2c1)NCCc1ccc(O)cc1
> 100 µM (inactive) | O=C(CCCNS(=O)(=O)c1ccc2[nH]c(=O)oc2c1)NCc1ccc2c(c1)OCO2
> 100 µM (inactive) | CC(C)Oc1ccc(CNC(=O)C2CCCN(S(=O)(=O)c3ccc4[nH]c(=O)oc4c3)C2)cc1 (stereo not given)
> 100 µM (inactive) | O=c1[nH]c2ccc(S(=O)(=O)NCc3ccc4c(c3)OCO4)cc2o1
> 100 µM (inactive) | Cc1cc(NC(=O)CCNS(=O)(=O)c2ccc3[nH]c(=O)oc3c2)ccc1Br
> 100 µM (inactive) | Cc1ccc(CNC(=O)CCNS(=O)(=O)c2ccc3[nH]c(=O)oc3c2)cc1
> 100 µM (inactive) | CSc1cccc(NC(=O)C2CCCN(S(=O)(=O)c3ccc4c(c3)oc(=O)n4C)C2)c1 (stereo not given)
51.4 µM and > 100 µM (inactive) | O=C(CCCNS(=O)(=O)c1ccc2[nH]c(=O)oc2c1)NCc1cccc(F)c1
> 100 µM (inactive) | COc1ccc(CNS(=O)(=O)c2ccc3[nH]c(=O)oc3c2)cc1
> 100 µM (inactive) | CCc1ccc(NC(=O)C2CCCN(S(=O)(=O)c3ccc4c(c3)oc(=O)n4C)C2)cc1 (stereo not given)
> 100 µM (inactive) | O=C(CCS(=O)(=O)Nc1ccc2[nH]c(=O)oc2c1)NCc1cccc(Cl)c1
> 100 µM (inactive) | O=C(CCNS(=O)(=O)c1ccc2[nH]c(=O)oc2c1)NCc1cccc(Cl)c1
> 100 µM (inactive) | COc1ccc(CCNC(=O)CCCNS(=O)(=O)c2ccc3[nH]c(=O)oc3c2)cc1

IC50 | SMILES
> 100 µM (inactive) | COc1ccc(CNC(=O)CCNS(=O)(=O)c2ccc3[nH]c(=O)oc3c2)c(OC)c1
> 100 µM (inactive) | COc1ccc(CNC(=O)CCNS(=O)(=O)c2ccc3[nH]c(=O)oc3c2)cc1
> 100 µM (inactive) and 81.4 µM | N#Cc1ccc(NC(=O)CNS(=O)(=O)c2ccc3[nH]c(=O)oc3c2)cc1
> 100 µM (inactive) | O=C(CCNS(=O)(=O)c1ccc2[nH]c(=O)oc2c1)NCc1ccc(O)c(O)c1
> 100 µM (inactive) | O=C(NCc1ccc2c(c1)OCO2)C1CCCN(S(=O)(=O)c2ccc3[nH]c(=O)oc3c2)C1 (stereo not given)
> 100 µM (inactive) and 34.8 µM | Cc1ccc(C)c(NC(=O)CNS(=O)(=O)c2ccc3[nH]c(=O)oc3c2)c1
> 100 µM (inactive) | O=C(CCNS(=O)(=O)c1ccc2[nH]c(=O)oc2c1)NCc1ccc(C(F)(F)F)cc1
> 100 µM (inactive) | O=C(NCc1ccc(F)cc1)C1CCCN(S(=O)(=O)c2ccc3[nH]c(=O)oc3c2)C1 (stereo not given)
> 100 µM (inactive) | COc1ccc(CNC(=O)CNS(=O)(=O)c2ccc3[nH]c(=O)oc3c2)c(OC)c1
> 100 µM (inactive) | O=C(CNS(=O)(=O)c1ccc2[nH]c(=O)oc2c1)NCCc1ccc2c(c1)OCO2
> 100 µM (inactive) | O=C(CCNS(=O)(=O)c1ccc2[nH]c(=O)oc2c1)NCc1cccc(F)c1
> 100 µM (inactive) | COc1ccc(NS(=O)(=O)c2ccc3[nH]c(=O)oc3c2)cc1OC
> 100 µM (inactive) | Cc1ccc(NC(=O)CCNS(=O)(=O)c2ccc3[nH]c(=O)oc3c2)cc1C
> 100 µM (inactive) | O=C(CCNS(=O)(=O)c1ccc2[nH]c(=O)oc2c1)NCc1ccc(Cl)cc1
> 100 µM (inactive) and 73.8 µM | COc1cccc(CNC(=O)CNS(=O)(=O)c2ccc3[nH]c(=O)oc3c2)c1
> 100 µM (inactive) | O=C(CCNS(=O)(=O)c1ccc2[nH]c(=O)oc2c1)NCc1ccccc1Cl
> 100 µM (inactive) | O=C(CCNS(=O)(=O)c1ccc2[nH]c(=O)oc2c1)NCc1ccc(F)cc1
80.9 µM and > 100 µM (inactive) | O=C(CCCNS(=O)(=O)c1ccc2[nH]c(=O)oc2c1)NCc1ccccc1Cl
> 100 µM (inactive) | COc1cccc(CNC(=O)CCNS(=O)(=O)c2ccc3[nH]c(=O)oc3c2)c1
> 100 µM (inactive) | CCOc1ccc(CNC(=O)C2CCCN(S(=O)(=O)c3ccc4[nH]c(=O)oc4c3)C2)cc1OC (stereo not given)
> 100 µM (inactive) | Cc1ccc(C)c(NS(=O)(=O)c2ccc3[nH]c(=O)oc3c2)c1
> 100 µM (inactive) | O=C(CCNS(=O)(=O)c1ccc2[nH]c(=O)oc2c1)NCCc1ccc(O)cc1
> 100 µM (inactive) | COc1ccc(OC)c(NC(=O)C2CCCN(S(=O)(=O)c3ccc4c(c3)oc(=O)n4C)C2)c1 (stereo not given)
> 100 µM (inactive) | COc1ccc(CNS(=O)(=O)c2ccc3[nH]c(=O)oc3c2)c(OC)c1
